Source: ChEMBL document CHEMBL1128864, “Antitumor activities of -, -monogalactosylceramides and four diastereomers of an -galactosylceramide” (1995)

Assays:
Assay type in all cases: functional
Mus musculus [1] = assay: Percent of tumor growth inhibition ratio (TGIR)of the compound administered intravenously at dose 100 ug/kg on day 1, 5, 9 in subcutaneously (murine fibrosarcoma Meth A cells) infected in BDF1 mice on day 10
Mus musculus [2] = assay: Percent of tumor growth inhibition ratio (TGIR)of the compound administered intravenously at dose 100 ug/kg(on day 1, 5, 9) in subcutaneously infected BDF1 mice on day 16
Mus musculus [3] = assay: Percent of tumor growth inhibition ratio (TGIR)of the compound administered intravenously at dose 100 ug/kg(on day 1, 5, 9) in subcutaneously infected BDF1 mice on day 12
Mus musculus [4] = assay: Percent of tumor growth inhibition ratio (TGIR)of the compound administered intravenously at dose 100 ug/kg on day 1, 5, 9 in subcutaneously (murine fibrosarcoma Meth A cells) infected in BDF1 mice on day 13
Mus musculus [5] = assay: Percent of tumor growth inhibition ratio (TGIR)of the compound administered intravenously at dose 100 ug/kg on day 1, 5, 9 in subcutaneously (murine fibrosarcoma Meth A cells) infected in BDF1 mice on day 16
Mus musculus [6] = assay: Percent of tumor growth inhibition ratio (TGIR)of the compound administered intravenously at dose 100 ug/kg(on day 1, 5, 9) in subcutaneously infected BDF1 mice on day 9
Mus musculus [7] = assay: Percent of tumor growth inhibition ratio (TGIR)of the compound administered intravenously at dose 100 ug/kg on day 1, 5, 9 in subcutaneously (murine fibrosarcoma Meth A cells) infected in BDF1 mice on day 20
Mus musculus [8] = assay: Percent of tumor growth inhibition ratio (TGIR)of the compound administered intravenously at dose 100 ug/kg(on day 1, 5, 9) in subcutaneously infected BDF1 mice on day 20
Mus musculus [9] = assay: Percent of tumor growth inhibition ratio (TGIR)of the compound administered intravenously at dose 5 mg/kg (on day 1) in subcutaneously infected BDF1 mice on day 14; conditions: route intravenous
Mus musculus [10] = assay: Percent of tumor growth inhibition ratio (TGIR)of the compound administered intraperitoneally at dose 5 mg/kg (on day 7, 11,15) in subcutaneously infected BDF1 mice on day 16; conditions: route subcutaneous
Mus musculus [11] = assay: Percent of tumor growth inhibition ratio (TGIR)of the compound administered intravenously at dose 5 mg/kg (on day1,5,9) in subcutaneously infected BDF1 mice on day 16; conditions: route intravenous
Mus musculus [12] = assay: Percent of tumor growth inhibition ratio (TGIR)of the compound administered intraperitoneally at dose 5 mg/kg (on day 7, 11,15) in subcutaneously infected BDF1 mice on day 9; conditions: route subcutaneous
Mus musculus [13] = assay: Percent of tumor growth inhibition ratio (TGIR)of the compound administered intraperitoneally at dose 100 ug/kg(on day 1) in subcutaneously infected BDF1 mice on day 13
Mus musculus [14] = assay: Percent of tumor growth inhibition ratio (TGIR)of the compound administered intravenously at dose 5 mg/kg (on day10, 14, 18 ) in subcutaneously infected BDF1 mice on day 20; conditions: route intravenous
Mus musculus [15] = assay: Percent of tumor growth inhibition ratio (TGIR)of the compound administered intravenously at dose 100 ug/kg(on day 7, 11,15) in subcutaneously infected BDF1 mice on day 16
Mus musculus [16] = assay: Percent of tumor growth inhibition ratio (TGIR)of the compound administered intravenously at dose 5 mg/kg (on day 1) in subcutaneously infected BDF1 mice on day 20; conditions: route intravenous
Mus musculus [17] = assay: Percent of tumor growth inhibition ratio (TGIR)of the compound administered intravenously at dose 5 mg/kg (on day 1,5,9) in subcutaneously infected BDF1 mice on day 20; conditions: route intravenous
Mus musculus [18] = assay: Percent of tumor growth inhibition ratio (TGIR)of the compound administered intravenously at dose 5 mg/kg (on day 1) in subcutaneously infected BDF1 mice on day 11; conditions: route intravenous
Mus musculus [19] = assay: Percent of tumor growth inhibition ratio (TGIR)of the compound administered intraperitoneally at dose 100 ug/kg(on day 1) in subcutaneously infected BDF1 mice on day 20
Mus musculus [20] = assay: Percent of tumor growth inhibition ratio (TGIR)of the compound administered intravenously at dose 5 mg/kg (on day 1,5,9) in subcutaneously infected BDF1 mice on day 8; conditions: route intravenous
Mus musculus [21] = assay: Percent of tumor growth inhibition ratio (TGIR)of the compound administered intravenously at dose 5 mg/kg (on day 1) in subcutaneously infected BDF1 mice on day 18; conditions: route intravenous
Mus musculus [22] = assay: Percent of tumor growth inhibition ratio (TGIR)of the compound administered intravenously at dose 5 mg/kg (on day 10, 14, 18 ) in subcutaneously infected BDF1 mice on day 12; conditions: route intravenous
Mus musculus [23] = assay: Percent of tumor growth inhibition ratio (TGIR)of the compound administered intraperitoneally at dose 100 ug/kg(on day 1) in subcutaneously infected BDF1 mice on day 12
Mus musculus [24] = assay: Percent of tumor growth inhibition ratio (TGIR)of the compound administered intravenously at dose 5 mg/kg (on day 1,5,9) in subcutaneously infected BDF1 mice on day 12; conditions: route intravenous
Mus musculus [25] = assay: Percent of tumor growth inhibition ratio (TGIR)of the compound administered intraperitoneally at dose 5 mg/kg (on day 1) in subcutaneously infected BDF1 mice on day 10; conditions: route subcutaneous
Mus musculus [26] = assay: Percent of tumor growth inhibition ratio (TGIR)of the compound administered intravenously at dose 5 mg/kg (on day 10, 14, 18 ) in subcutaneously infected BDF1 mice on day 16; conditions: route intravenous
Mus musculus [27] = assay: Percent of tumor growth inhibition ratio (TGIR)of the compound administered intravenously at dose 5 mg/kg (on day 1) in subcutaneously infected BDF1 mice on day 22; conditions: route intravenous

`CCCCCCCCCCCCCCC[C@@H](O)[C@H](CO[C@H]1O[C@@H](CO)[C@H](O)[C@H](O)[C@@H]1O)NC(=O)CCCCCCCCCCCCC` (stereo in doubt; form 3) showed a TGIR (Mus musculus [1]) of 45.6%, a TGIR (Mus musculus [2]) of 26.8% and a TGIR (Mus musculus [3]) of 45.2%. It also gave a TGIR (Mus musculus [4]) of 41.5%, a TGIR (Mus musculus [5]) of 28.9% and a TGIR (Mus musculus [6]) of 35.3%. It also gave a TGIR (Mus musculus [7]) of 21.3% and a TGIR (Mus musculus [8]) of 4.2%.

`CCCCCCCCCCCCCCC[C@@H](O)[C@H](CO[C@H]1O[C@@H](CO)[C@H](O)[C@H](O)[C@@H]1O)NC(=O)CCCCCCCCCCCCC` (stereo in doubt; form 2) showed a TGIR (Mus musculus [1]) of 45.2%, a TGIR (Mus musculus [2]) of 1.4% and a TGIR (Mus musculus [3]) of 2.7%. It also gave a TGIR (Mus musculus [4]) of 45%, a TGIR (Mus musculus [5]) of 29.2% and a TGIR (Mus musculus [6]) of -28%. The TGIR (Mus musculus [7]) was 7% and the TGIR (Mus musculus [8]) was -7.6%.

Molecule `CO[C@@]12[C@H](COC(N)=O)C3=C(C(=O)C(C)=C(N)C3=O)N1C[C@@H]1N[C@@H]12` [MITOMYCIN] has a TGIR (Mus musculus [9]) of 29.7%, a TGIR (Mus musculus [10]) of 59.7% and a TGIR (Mus musculus [11]) of 86%. For the same molecule, the TGIR (Mus musculus [12]) was 35.2%, the TGIR (Mus musculus [13]) was 85.1% and the TGIR (Mus musculus [14]) was 68.1%. It also gave a TGIR (Mus musculus [15]) of 80%, a TGIR (Mus musculus [16]) of 75.1% and a TGIR (Mus musculus [17]) of 83.2%. For the same molecule, the TGIR (Mus musculus [18]) was 8.6%, the TGIR (Mus musculus [19]) was 48.6% and the TGIR (Mus musculus [20]) was 90%. It also gave a TGIR (Mus musculus [21]) of 51.2%, a TGIR (Mus musculus [22]) of 38.8% and a TGIR (Mus musculus [23]) of 53.9%. It also gave a TGIR (Mus musculus [24]) of 89.7%, a TGIR (Mus musculus [25]) of 80.1% and a TGIR (Mus musculus [26]) of 52.8%. It also gave a TGIR (Mus musculus [27]) of 60%.

For `CCCCCCCCCCCCCCC[C@@H](O)[C@H](CO[C@H]1O[C@@H](CO)[C@H](O)[C@H](O)[C@@H]1O)NC(=O)CCCCCCCCCCCCC` (stereo in doubt; form 1), the TGIR (Mus musculus [1]) was 26.9%, the TGIR (Mus musculus [2]) was 35% and the TGIR (Mus musculus [3]) was 38%. The TGIR (Mus musculus [4]) was 33.1%, the TGIR (Mus musculus [5]) was 22.1% and the TGIR (Mus musculus [6]) was 29%. It also gave a TGIR (Mus musculus [7]) of 3.9% and a TGIR (Mus musculus [8]) of 28.3%.

For `CCCCCCCCCCCCCCC[C@@H](O)[C@H](CO[C@H]1O[C@@H](CO)[C@H](O)[C@H](O)[C@@H]1O)NC(=O)CCCCCCCCCCCCC` (stereo in doubt; form 4), the TGIR (Mus musculus [1]) was 69%, the TGIR (Mus musculus [2]) was 64.8% and the TGIR (Mus musculus [3]) was 62%. It also gave a TGIR (Mus musculus [4]) of 68.1%, a TGIR (Mus musculus [5]) of 58.1% and a TGIR (Mus musculus [6]) of 59.5%. It also gave a TGIR (Mus musculus [7]) of 36.7% and a TGIR (Mus musculus [8]) of 54%.
